According to US20130345419A1, “AZOLE DERIVATIVE” (TAISHO PHARMACEUTICAL CO., LTD., priority 2011, published 2013):

molecular target: T1, human recombinant FKBP12 (Homo sapiens, UniProt P62942); assay: Test 1: immunophilin FKBP12 rotamase (peptidylprolyl isomerase) inhibiting activity; type: biochemical; conditions: 12 nM human recombinant FKBP12, substrate succinyl-Ala-Phe-Pro-Phe-paranitroanilide 48 μM, 4° C.; read-out: PKBP12 rotamase inhibiting activity IC50
T1 construct: purchased Sigma F-5398
T1 sequence (P62942 whole entry): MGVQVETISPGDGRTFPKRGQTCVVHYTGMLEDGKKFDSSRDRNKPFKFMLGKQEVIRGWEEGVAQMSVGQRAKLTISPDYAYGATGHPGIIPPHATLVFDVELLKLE
Method: (Test 1) Test for Measuring Immunophilin FKBP12 Rotamase Activity
The rotamase (peptidylprolyl isomerase) inhibiting activity of each test compound was measured by a known method (Harding et al., Nature 341, 758-760, 1989; Holts et al., J. Am. Chem. Soc. 115, 9925-9938, 1993.) To be more specific, a plastic cuvette was charged with 35 mM HEPES (pH 7.8), 12 nM human recombinant FKBP12 (Sigma, F-5398), 0.4 mg/mL α-chymotrypsin, and a test compound dissolved in DMSO at varying concentrations (DMSO's final concentration was 0.1%.) Subsequently, 24 mM of the substrate peptide, succinyl-Ala-Phe-Pro-Phe-paranitroanilide, as dissolved in trifluoroethanol containing 500 mM of LiCl was added to give a final concentration of 48 μM, whereupon reaction started. The reaction was carried out at 4° C. and the change in absorbance at 390 nm accompanying the liberation of the paranitroaniline product was monitored. A calculated initial rate minus the corresponding value in the absence of the enzyme was used as an index of rotamase activity. The rotamase inhibiting activity of a test compound was expressed in relative values (%) with respect to the control value of rotamase activity in the absence of the compound, and the concentration of the compound at which it was capable of inhibiting rotamase activity by 50% was calculated as an IC50 value from its concentration response curve.

| Compound | IC50 [nM] |
| --- | --- |
| COc1ccc(OCc2cc([C@@H]3CCCN3C(=O)C(F)(F)C3(O)CC(C)(C)CC(C)(C)C3)no2)cn1 [Compound 41, (S)-2,2-Difluoro-2-(1-hydroxy-3,3,5,5-tetramethylcyclohexyl)-1-(2-(5-(((6-methoxypyridin-3-yl)oxy)methyl)isoxazol-3-yl)pyrrolidin-1-yl)ethanone] | 150 |
| CC1(C)CC(C)(C)CC(O)(C(F)(F)C(=O)N2CCC[C@H]2c2cc(CN)on2)C1 [Compound 42, (S)-1-(2-(5-(Aminomethyl)isoxazol-3-yl)pyrrolidin-1-yl)-2,2-difluoro-2-(1-hydroxy-3,3,5,5-tetramethylcyclohexyl)ethanone] | 447 |
| COc1ccc(OCc2cc([C@@H]3CCCN3S(=O)(=O)CC3CCCCC3)no2)cc1OC [Compound 43, (S)-3-(1-((Cyclohexylmethyl)sulfonyl)pyrrolidin-2-yl)-5-((3,4-dimethoxyphenoxy)methyl)isoxazole] | 149 |
| CC1(C)CC(C)(C)CC(O)(C(F)(F)C(=O)N2CCC[C@H]2c2cc(CNC(=O)c3ccccc3)on2)C1 [Compound 44, (S)—N-((3-(1-(2,2-Difluoro-2-(1-hydroxy-3,3,5,5-tetramethylcyclohexyl)acetyl)pyrrolidin-2-yl)isoxazol-5-yl)methyl)benzamide] | 166 |
| CC1(C)CC(C)(C)CC(O)(C(F)(F)C(=O)N2CCC[C@H]2c2cc(CNS(=O)(=O)c3ccccc3)on2)C1 [Compound 45, (S)—N-((3-(1-(2,2-Difluoro-2-(1-hydroxy-3,3,5,5-tetramethylcyclohexyl)acetyl)pyrrolidin-2-yl)isoxazol-5-yl)methyl)benzenesulfonamide] | 101 |
| CN(C)Cc1cc([C@@H]2CCCN2C(=O)C(F)(F)C2(O)CC(C)(C)CC(C)(C)C2)no1 [Compound 46, (S)-1-(2-(5-((Dimethylamino)methyl)isoxazol-3-yl)pyrrolidin-1-yl)-2,2-difluoro-2-(1-hydroxy-3,3,5,5-tetramethylcyclohexyl)ethanone] | 310 |
| CC1(C)CC(C)(C)CC(O)(C(F)(F)C(=O)N2CCC[C@H]2c2cc(CN3CCOCC3)on2)C1 [Compound 47] | 254 |
| CC1(C)CC(C)(C)CC(O)(C(F)(F)C(=O)N2CCC[C@H]2c2cc(CNC(=O)Cc3ccccc3)on2)C1 [Compound 48] | 94 |
| CC1(C)CC(C)(C)CC(O)(C(F)(F)C(=O)N2CCC[C@H]2c2cc(C(C)(C)O)on2)C1 [Compound 49] | 500 to 1000 |
| COc1ccc(C(=O)NCc2cc([C@@H]3CCCN3C(=O)C(F)(F)C3(O)CC(C)(C)CC(C)(C)C3)no2)cc1OC [Compound 50] | 117 |
| COc1ccc(CC(=O)NCc2cc([C@@H]3CCCN3C(=O)C(F)(F)C3(O)CC(C)(C)CC(C)(C)C3)no2)cc1OC [Compound 51] | 74 |

Results, then the compound that gave them:

| IC50 [nM] | Compound |
| --- | --- |
| 204 | CC1(C)CC(C)(C)CC(O)(C(F)(F)C(=O)N2CCC[C@H]2c2cc(COc3ccccc3)on2)C1 [Compound 52, (S)-2,2-Difluoro-2-(1-hydroxy-3,3,5,5-tetramethylcyclohexyl)-1-(2-(5-(phenoxymethyl)isoxazol-3-yl)pyrrolidin-1-yl)ethanone] |
| 86 | CC1(C)CC(C)(C)CC(O)(C(F)(F)C(=O)N2CCC[C@H]2c2cc(COc3ccnnc3)on2)C1 [Compound 53, (S)-2,2-Difluoro-2-(1-hydroxy-3,3,5,5-tetramethylcyclohexyl)-1-(2-(5-((pyridazin-4-yloxy)methyl)isoxazol-3-yl)pyrrolidin-1-yl)ethanone] |
| 290 | CC1(C)CC(C)(C)CC(O)(C(F)(F)C(=O)N2CCC[C@H]2c2cc(COc3ccccn3)on2)C1 [Compound 54, (S)-2,2-Difluoro-2-(1-hydroxy-3,3,5,5-tetramethylcyclohexyl)-1-(2-(5-((pyridin-2-yloxy)methyl)isoxazol-3-yl)pyrrolidin-1-yl)ethanone] |
| 228 | CC1(C)CC(C)(C)CC(O)(C(F)(F)C(=O)N2CCC[C@H]2c2cc(COc3cnccn3)on2)C1 [Compound 55, (S)-2,2-Difluoro-2-(1-hydroxy-3,3,5,5-tetramethylcyclohexyl)-1-(2-(5-((pyrazin-2-yloxy)methyl)isoxazol-3-yl)pyrrolidin-1-yl)ethanone] |
| 328 | CC1(C)CC(C)(C)CC(O)(C(F)(F)C(=O)N2CCC[C@H]2c2cc(COc3cccnn3)on2)C1 [Compound 56, (S)-2,2-Difluoro-2-(1-hydroxy-3,3,5,5-tetramethylcyclohexyl)-1-(2-(5-((pyridazin-3-yloxy)methyl)isoxazol-3-yl)pyrrolidin-1-yl)ethanone] |
| 79 | CC1(C)CC(C)(C)CC(O)(C(F)(F)C(=O)N2CCC[C@H]2c2cc(COc3ccncc3)on2)C1 [Compound 57, (S)-2,2-Difluoro-2-(1-hydroxy-3,3,5,5-tetramethylcyclohexyl)-1-(2-(5-((pyridin-4-yloxy)methyl)isoxazol-3-yl)pyrrolidin-1-yl)ethanone] |
| 250 | CC1(C)CC(C)(C)CC(O)(C(F)(F)C(=O)N2CCC[C@H]2c2cc(COc3ncccn3)on2)C1 [Compound 58, (S)-2,2-Difluoro-2-(1-hydroxy-3,3,5,5-tetramethylcyclohexyl)-1-(2-(5-((pyrimidin-2-yloxy)methyl)isoxazol-3-yl)pyrrolidin-1-yl)ethanone] |
| 124 | CC1(C)CC(C)(C)CC(O)(C(F)(F)C(=O)N2CCC[C@H]2c2cc(COc3cncnc3)on2)C1 [Compound 59] |
| 376 | CC1(C)CC(C)(C)CC(O)(C(F)(F)C(=O)N2CCC[C@H]2c2cc(Cn3ccccc3=O)on2)C1 [Compound 60, (S)-1-((3-(1-(2,2-Difluoro-2-(1-hydroxy-3,3,5,5-tetramethylcyclohexyl)acetyl)pyrrolidin-2-yl)isoxazol-5-yl)methyl)pyridin-2(1H)-one] |
| 152 | CC1(C)CC(C)(C)CC(O)(C(F)(F)C(=O)N2CCC[C@H]2c2cc(Cn3ccc(=O)nc3)on2)C1 [Compound 61, (S)-1-((3-(1-(2,2-Difluoro-2-(1-hydroxy-3,3,5,5-tetramethylcyclohexyl)acetyl)pyrrolidin-2-yl)isoxazol-5-yl)methyl)pyrimidin-4(1H)-one] |
| 210 | CC1(C)CC(C)(C)CC(O)(C(F)(F)C(=O)N2CCC[C@H]2c2cc(Cn3cnccc3=O)on2)C1 [Compound 62, (S)-3-((3-(1-(2,2-Difluoro-2-(1-hydroxy-3,3,5,5-tetramethylcyclohexyl)acetyl)pyrrolidin-2-yl)isoxazol-5-yl)methyl)pyrimidin-4(3H)-one] |
| 241 | Cc1ccc(OCc2cc([C@@H]3CCCN3C(=O)C(F)(F)C3(O)CC(C)(C)CC(C)(C)C3)no2)cc1 [Compound 65] |

test system: proliferating cell nuclear antigen (PCNA); assay: Test 6: anagen induction stimulating effect in shaven mouse model, skin PCNA by ELISA; type: in vivo; conditions: 5% (w/v) in 80% ethanol, 200 μL once daily for 2 days, skin sampled about 4 hours after second administration, C57BL mice
Method: (Test 6) Test for Measuring Anagen Induction Stimulating Effect in Shave Mouse Model
The anagen induction stimulating effect of a compound was measured by the following method with the quantity of skin PCNA being used as an index.
C57BL mice (female, ca. 7-wk old) were shaven on the back and a base (80% ethanol) or a solution prepared by dissolving 5% (w/v) of Compound 40, 52, 59, 61, 63, 64 or 66 in this base was administered by applying them to the shaven area in 200-μL portions once daily for 2 days starting 3 days after the shaving (each group consisting of 5 heads.) About 4 hours after the administration on the second day, the skin at the application site was sampled and homogenized in a buffer containing 50 mM Tris-HCl (pH 7.6), 150 mM NaCl, 1% NP-40, and a protease inhibitor. By a centrifugal separation procedure, a PCNA containing protein solution was prepared and the quantity of PCNA in the solution was measured with a PCNA-ELISA kit of Calbiochem, Inc.

| Compound | quantity of skin PCNA versus base administered group | skin PCNA levels relative to base administered group |
| --- | --- | --- |
| CC1(C)CC(C)(C)CC(O)(C(F)(F)C(=O)N2CCC[C@H]2c2cc(COc3ccccc3)on2)C1 [Compound 52, (S)-2,2-Difluoro-2-(1-hydroxy-3,3,5,5-tetramethylcyclohexyl)-1-(2-(5-(phenoxymethyl)isoxazol-3-yl)pyrrolidin-1-yl)ethanone] | increases in the quantity of skin PCNA | – |
| CC1(C)CC(C)(C)CC(O)(C(F)(F)C(=O)N2CCC[C@H]2c2cc(COc3cncnc3)on2)C1 [Compound 59] | increases in the quantity of skin PCNA | – |
| CC1(C)CC(C)(C)CC(O)(C(F)(F)C(=O)N2CCC[C@H]2c2cc(Cn3ccc(=O)nc3)on2)C1 [Compound 61, (S)-1-((3-(1-(2,2-Difluoro-2-(1-hydroxy-3,3,5,5-tetramethylcyclohexyl)acetyl)pyrrolidin-2-yl)isoxazol-5-yl)methyl)pyrimidin-4(1H)-one] | increases in the quantity of skin PCNA | – |
| CC1(C)CC(C)(C)CC(O)(C(F)(F)C(=O)N2CCC[C@H]2c2cc(Cn3ccc(=O)cc3)on2)C1 [Compound 66, (S)-1-((3-(1-(2,2-Difluoro-2-(1-hydroxy-3,3,5,5-tetramethylcyclohexyl)acetyl)pyrrolidin-2-yl)isoxazol-5-yl)methyl)pyridin-4(1H)-one] | – | approximately 1.4 times |
